In one test the test system is C. albicans. Nature of the test: standard in vitro fungal cell growth inhibition assay (broth dilution, M27-P), minimum fungicidal concentration. The format is cell-based. Conditions: Candida albicans, A39 clinical isolate, RPMI media, inoculum 10^4 cells, less than 0.01% survival of original inoculum. On the procedure: (§1) Activity of the compounds were assessed using a standard in vitro fungal cell growth inhibition assay (the broth dilution antifungal susceptibility testing of yeast, proposed standard document M27-P, validated by the National Committee for Clinical Laboratory Standards, 1992). Briefly, this broth dilution procedure uses RPMI media, and an inoculum of 10^4 cells. Control tubes contained media alone. After the minimal inhibitor concentration was determined by the above procedure, tubes with no visible growth were subcultured to determine the minimum fungicidal concentration by using criteria of less than 0.01% survival of original inoculum. Two organisms were tested: (1) H99, a clinical isolate of C. neoformans which is fully susceptible to azoles and polyenes in vitro and in vivo; and (2) A39, a clinical isolate of C. albicans which is fully susceptible to azoles and polyenes.
(§2) The MFC's (minimum fungicidal concentration) against these two important AIDS-associated fungal infections are shown in Table 1. MFCs were determined following the method of McGinnis.
For orientation: Broth dilution looks for growth in wells or tubes with falling amounts of substance.

A further test concerns C. neoformans. The description is as above. The class given is cell-based. Particulars: Cryptococcus neoformans, H99 clinical isolate, RPMI media, inoculum 10^4 cells, less than 0.01% survival of original inoculum. How it is done: as §1, §2
The test system of another test is L1210 cells. Kind of test: in vitro cytotoxicity, 3H-thymidine incorporation in L1210 cells. The format is cell-based. Particulars: Mus musculus, 48 hours, 6 replicates. From the text:
Source: L1210 cells were obtained from the American Type Culture Collection (ATCC#CCL219). This line is a mouse lymphocytic leukemia line first described by E. Law et al., J. Natl. Cancer Inst. 10, 179-192 (1949) as a tumor arising in a mouse following skin paintings with 0.2% methycholanthrene. The first report of suspension culture was reported by G. Moore et al. J. Natl. Cancer Inst. 36, 405-421 (1966). This line has been used extensively for routine screening programs of chemical agents and natural products for cytotoxic activity and is also utilized in preliminary testing for antitumor activity by the NCI in cancer chemotherapy screening studies.
The in vitro cytotoxicity studies were performed essentially as described by Denizot and Lang, "Rapid calorimetric assay for cell growth and survival: Modification of tetrazolium dye procedure giving improved sensitivity and reliability", J. Immunological Methods 89, 271 (1986), but with the following modifications. Since many of the drugs had color interference, the viability of the cells was determined with a ^3 H-thymidine incorporation method. L1210 cells in DMEM +10% fetal calf serum were plated at 2.0×10^4 cells/well. An equal volume of test compound was added to each well diluted to 2× the final concentration in the above medium. Final drug concentrations ranged from 0.05 to 50 μM. After 24 hours at 37° C., 2.5 μCi of ^3 H-Thymidine (5 Ci/mmol) was added to each well. At 48 hours, the cells were harvested onto glass filters and radioactivity was measured with a scintillation counter.
The IC50 value was determined as the concentration leading to a 50% reduction of ^3 H-thymidine incorporation relative to control wells. Each value shown in Table 1, above, resulted from 6 replicates for each compound.
Background: Incorporation of labelled thymidine or its analogues reports DNA synthesis.

The test system of the next test is S. cerevisiae. Kind of test: S. cerevisiae IC50 (Table I). The format is cell-based. Particulars: Saccharomyces cerevisiae.
The test system of another test is Calf thymus DNA. Nature of the test: DNA binding by change in melting of the DNA bound to the compounds (ΔTm). Particulars: 259 nm, 18° C./h heating; initial absorbance of 0.3A259. How it is done: DNA binding potency was determined for each of the compounds because previous work had determined that the binding of dicationic molecules to DNA is a prerequisite for their antimicrobial activity. See e.g., Tidwell, R. R., et al., Antimicrob. Agents Chemother. 37, 1713-1716 (1993); Bell, C. A., et al., Antimicrob. Agents Chemother. 35, 1099-1107 (1991). The DNA binding of the compounds was determined by the change in melting of the DNA bound to the compounds. The method is well documented and is a considered a standard method for determining DNA binding strength. See Cory, M. et al., J. Med. Chem. 25, 431-438 (1992). In brief, a UV-visible light spectrophotometer with a cuvette changer was interfaced to a microcomputer that recorded the cuvette temperature and DNA-absorbance data at 259 nm as the sample was heated at a rate of 18° C./h. Calf thymus DNA was used at an initial absorbance of 0.3A259. The midpoint of each denaturation curve was determined after graphic selection on the computer of the starting and ending absorbance temperature for each curve of each experiment. DNA or DNA bound to experimental compound was run in each experiment and the ΔTm s were determined from the polynucleotide TM for that experiment.

Values after ≈ are worked out from the molar mass of the structure shown. Some results are limits rather than exact numbers.

Consider `N=C(N)c1ccc2nc(-c3ccc(-c4nc5ccc(C(=N)N)cc5[nH]4)o3)[nH]c2c1` [Compound 9, 2,5-bis(5-amidino-2-benzimidazolyl)furan], for which the minimal fungicidal concentration (MFC) (in general, the lowest tested concentration that kills the fungus rather than only halting it) with C. albicans stood at 6.44 µM (≈ 2.48 µg/mL); in the test with C. neoformans, 1.61 µM (≈ 0.619 µg/mL).

With `c1cc2[nH]c(-c3ccc(-c4nc5cc(C6=NCCN6)ccc5[nH]4)[nH]3)nc2cc1C1=NCCN1` [Compound 2, 2,5-bis-[5-(2-imidazolinyl)-2-benzimidazolyl]pyrrole], the IC50 (commonly the concentration at which inhibition is half-maximal) in the test on L1210 cells was 1.07 µM; in the test with S. cerevisiae, below 1 µM. For the same compound, the minimum fungicidal concentration (MFC) in the test on C. albicans was 26.8 µM (≈ 11.7 µg/mL); with C. neoformans, 107 µM (≈ 46.6 µg/mL).

As to `N=C(N)c1ccc2nc(-c3ccc(-c4nc5ccc(C(=N)N)cc5[nH]4)[nH]3)[nH]c2c1` [Compound 1, 2,5-bis(5-amidino-2-benzimidazolyl)pyrrole], the half-inhibitory concentration (IC50) is 0.21 µM in the test on L1210 cells and 45 µM in the test with S. cerevisiae. Also, the ΔTm DNA binding in the test with Calf thymus DNA is 18.1 °C. Further, the results for the MFC in the test on C. albicans and against C. neoformans were 5.71 µM (≈ 2.19 µg/mL) and 2.85 µM (≈ 1.09 µg/mL), respectively.

With `Cn1c(-c2nc3ccc(C(=N)N)cc3[nH]2)ccc1-c1nc2ccc(C(=N)N)cc2[nH]1` [Compound 4, 1-Methyl-2,5-bis(5-amidino-2-benzimidazolyl)pyrrole], the concentration for half-maximal inhibition (IC50) with L1210 cells is 0.81 µM; with S. cerevisiae, 90 µM. For the same compound, in the test with Calf thymus DNA, the ΔTm DNA binding is 20.3 °C. The figures for the minimum fungicidal concentration (MFC) against C. albicans and against C. neoformans were 2.84 µM (≈ 1.13 µg/mL) and 5.69 µM (≈ 2.26 µg/mL), respectively.

As for `N=C(N)c1ccc2[nH]c(-c3cccc(-c4nc5cc(C(=N)N)ccc5[nH]4)n3)nc2c1` [Compound 7, 2,6-bis(5-amidino-2-benzimidazoyl)pyridine], the figures for the concentration for half-maximal inhibition (IC50) with L1210 cells and in the test with S. cerevisiae were 13.6 µM and 95 µM, respectively. Besides, the ΔTm DNA binding with Calf thymus DNA is 15.3 °C. Besides, the MFC against C. albicans and against C. neoformans was above 179 µM in each case.

`c1cc(-c2nc3cc(C4=NCCN4)ccc3[nH]2)nc(-c2nc3cc(C4=NCCN4)ccc3[nH]2)c1` [Compound 3, 2,6-bis[5-(2-imidazolinyl)-2-benzimidazolyl]pyridine]: the IC50 amounted to 1.26 µM in the test with L1210 cells and 10 µM with S. cerevisiae. Also, the results for the MFC with C. albicans and against C. neoformans were 2.6 µM (≈ 1.16 µg/mL) and 5.2 µM (≈ 2.33 µg/mL), respectively.

`c1cc2[nH]c(-c3ccc(-c4nc5cc(C6=NCCN6)ccc5[nH]4)o3)nc2cc1C1=NCCN1` [Compound 10, 2,5-bis[5-(2-imidazolinyl)-2-benzimidazolyl]furan]: the MFC amounted to 5.21 µM (≈ 2.27 µg/mL) against C. albicans and 2.6 µM (≈ 1.13 µg/mL) against C. neoformans.

For `c1cc(-c2nc3ccc(C4=NCCCN4)cc3[nH]2)nc(-c2nc3ccc(C4=NCCCN4)cc3[nH]2)c1` [Compound 8, 2,6-bis[5-(1,4,5,6-tetrahydro-2-pyrimidinyl)-2-benzimidazolyl]pyridine], the figures for the IC50 in the test on L1210 cells and in the test on S. cerevisiae were 3 µM and 304 µM, respectively. Besides, the ΔTm DNA binding in the test with Calf thymus DNA was 14.8 °C. Moreover, the MFC in the test on C. albicans is above 52 µM; with C. neoformans, 19 µM (≈ 9.05 µg/mL).

Take `Cn1c(-c2nc3cc(C4=NCCN4)ccc3[nH]2)ccc1-c1nc2cc(C3=NCCN3)ccc2[nH]1` [Compound 5]: the figures for the half-maximal inhibitory concentration (IC50) in the test with L1210 cells and in the test on S. cerevisiae were 1.51 µM and above 100 µM, respectively. In the test with Calf thymus DNA, the ΔTm DNA binding was 22.5 °C. Further, the MFC was determined as 5.09 µM (≈ 2.29 µg/mL) in the test on C. albicans and 2.54 µM (≈ 1.14 µg/mL) with C. neoformans.

For the origin of these results see patent US6294565A, “Methods of combatting infectious diseases using dicationic bis-benzimidazoles” (University of North Carolina at Chapel Hill, priority 2000, dated 2001).
